Measurements reported in the kinase profiling compilation of Christmann-Franck et al. (2016).
One block for each molecule: values may come before it.

What was measured:
Assay in all cases: radiometric filter-binding kinase assay
MAPK13 (human) = MAPK13 (human) (UniProt O15264)
DYRK1A (human) = DYRK1A (human) (UniProt Q13627)
CAMKK2 (human) = CAMKK2 (human) (UniProt Q96RR4)
SYK (human) = SYK (human) (UniProt P43405)
[1] = test system: SGK1 (human), O00141 [S422D]
PHKG1 (human) = PHKG1 (human) (UniProt Q16816)
PAK7 (human) = PAK7 (human) (UniProt Q9P286)
MAPK3 (human) = MAPK3 (human) (UniProt P27361)
MAP3K5 (human) = MAP3K5 (human) (UniProt Q99683)
MKNK1 (human) = MKNK1 (human) (UniProt Q9BUB5)
PIM2 (human) = PIM2 (human) (UniProt Q9P1W9)
MAP2K6 (human) = MAP2K6 (human) (UniProt P52564)
MAPKAPK2 (human) = MAPKAPK2 (human) (UniProt P49137)
FGFR1 (human) = FGFR1 (human) (UniProt P11362)
GSK3B (human) = GSK3B (human) (UniProt P49841)
PRKAA1 or PRKAA2 (rat) = conditions: accession and sequence are those of the human protein
BRSK1 (human) = BRSK1 (human) (UniProt Q8TDC3)
MAPK12 (human) = MAPK12 (human) (UniProt P53778)
MARK1 (human) = MARK1 (human) (UniProt Q9P0L2)
EPHB4 (human) = EPHB4 (human) (UniProt P54760)
MAPK9 (human) = MAPK9 (human) (UniProt P45984)
PRKACA (human) = PRKACA (human) (UniProt P17612)
PRKCZ (human) = PRKCZ (human) (UniProt Q05513)
HIPK3 (human) = HIPK3 (human) (UniProt Q9H422)
ERBB4 (human) = ERBB4 (human) (UniProt Q15303)
PIM1 (human) = PIM1 (human) (UniProt P11309)
IGF1R (human) = IGF1R (human) (UniProt P08069)
DAPK1 (human) = DAPK1 (human) (UniProt P53355)
MELK (human) = MELK (human) (UniProt Q14680)
MAPKAPK5 (human) = MAPKAPK5 (human) (UniProt Q8IW41)
EEF2K (human) = EEF2K (human) (UniProt O00418)
MAP2K2 (human) = MAP2K2 (human) (UniProt P36507)
STK3 (human) = STK3 (human) (UniProt Q13188)
BRSK2 (human) = BRSK2 (human) (UniProt Q8IWQ3)
PIM3 (human) = PIM3 (human) (UniProt Q86V86)
IKBKE (human) = IKBKE (human) (UniProt Q14164)

CAMKK2 (human), sequence (Q96RR4 whole entry, looked up): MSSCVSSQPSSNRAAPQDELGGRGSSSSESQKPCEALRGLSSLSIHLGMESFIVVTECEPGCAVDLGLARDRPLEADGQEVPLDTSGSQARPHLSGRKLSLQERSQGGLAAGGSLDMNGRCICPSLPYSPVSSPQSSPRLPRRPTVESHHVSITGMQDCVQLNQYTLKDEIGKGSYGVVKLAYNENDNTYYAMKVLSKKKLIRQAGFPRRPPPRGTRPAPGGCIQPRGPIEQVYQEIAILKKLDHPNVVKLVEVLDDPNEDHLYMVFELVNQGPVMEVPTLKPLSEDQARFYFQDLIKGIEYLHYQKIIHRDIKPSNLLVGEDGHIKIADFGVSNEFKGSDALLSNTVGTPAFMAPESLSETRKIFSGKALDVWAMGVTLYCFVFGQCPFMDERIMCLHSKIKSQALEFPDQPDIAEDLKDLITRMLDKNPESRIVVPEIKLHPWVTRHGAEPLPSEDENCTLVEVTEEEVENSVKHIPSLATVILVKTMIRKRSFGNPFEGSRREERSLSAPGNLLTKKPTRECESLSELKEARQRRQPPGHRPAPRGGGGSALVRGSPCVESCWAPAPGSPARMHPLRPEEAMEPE
MAPK9 (human), sequence (P45984 whole entry, looked up): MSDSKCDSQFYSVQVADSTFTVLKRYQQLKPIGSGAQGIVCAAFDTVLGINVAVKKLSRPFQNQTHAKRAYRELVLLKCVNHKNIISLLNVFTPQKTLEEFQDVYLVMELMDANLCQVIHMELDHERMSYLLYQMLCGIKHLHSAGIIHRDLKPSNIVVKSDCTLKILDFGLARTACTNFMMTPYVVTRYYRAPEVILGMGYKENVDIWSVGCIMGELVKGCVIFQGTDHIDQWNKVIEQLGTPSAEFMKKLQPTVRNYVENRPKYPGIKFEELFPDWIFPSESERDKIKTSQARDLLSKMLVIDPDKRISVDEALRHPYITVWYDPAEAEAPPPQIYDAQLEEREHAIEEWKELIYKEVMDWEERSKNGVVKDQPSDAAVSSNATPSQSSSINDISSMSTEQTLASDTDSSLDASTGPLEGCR
MAPKAPK2 (human), sequence (P49137 whole entry, looked up): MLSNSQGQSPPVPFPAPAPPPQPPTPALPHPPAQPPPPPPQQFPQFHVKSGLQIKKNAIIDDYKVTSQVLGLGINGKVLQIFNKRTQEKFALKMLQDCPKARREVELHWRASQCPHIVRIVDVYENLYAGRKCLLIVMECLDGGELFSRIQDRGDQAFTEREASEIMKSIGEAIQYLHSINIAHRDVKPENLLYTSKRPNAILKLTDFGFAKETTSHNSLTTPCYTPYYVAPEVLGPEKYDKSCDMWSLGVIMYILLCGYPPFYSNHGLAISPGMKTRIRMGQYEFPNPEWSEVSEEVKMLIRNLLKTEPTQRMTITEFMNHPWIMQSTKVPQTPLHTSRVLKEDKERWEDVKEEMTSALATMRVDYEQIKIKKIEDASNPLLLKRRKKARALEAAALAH
SGK1 (human), O00141 [S422D], sequence (O00141 whole entry S422D, looked up): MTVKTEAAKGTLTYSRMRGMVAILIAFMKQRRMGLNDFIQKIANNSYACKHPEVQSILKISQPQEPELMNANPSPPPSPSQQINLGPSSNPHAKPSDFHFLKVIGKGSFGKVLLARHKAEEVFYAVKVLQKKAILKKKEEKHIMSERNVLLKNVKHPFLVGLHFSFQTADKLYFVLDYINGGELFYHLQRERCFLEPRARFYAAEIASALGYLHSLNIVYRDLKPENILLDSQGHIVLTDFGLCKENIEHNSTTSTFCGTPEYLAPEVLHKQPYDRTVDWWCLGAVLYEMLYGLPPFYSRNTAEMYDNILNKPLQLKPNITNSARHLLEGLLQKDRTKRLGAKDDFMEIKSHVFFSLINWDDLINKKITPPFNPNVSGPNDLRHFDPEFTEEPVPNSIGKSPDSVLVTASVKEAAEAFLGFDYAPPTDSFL
MKNK1 (human), sequence (Q9BUB5 whole entry, looked up): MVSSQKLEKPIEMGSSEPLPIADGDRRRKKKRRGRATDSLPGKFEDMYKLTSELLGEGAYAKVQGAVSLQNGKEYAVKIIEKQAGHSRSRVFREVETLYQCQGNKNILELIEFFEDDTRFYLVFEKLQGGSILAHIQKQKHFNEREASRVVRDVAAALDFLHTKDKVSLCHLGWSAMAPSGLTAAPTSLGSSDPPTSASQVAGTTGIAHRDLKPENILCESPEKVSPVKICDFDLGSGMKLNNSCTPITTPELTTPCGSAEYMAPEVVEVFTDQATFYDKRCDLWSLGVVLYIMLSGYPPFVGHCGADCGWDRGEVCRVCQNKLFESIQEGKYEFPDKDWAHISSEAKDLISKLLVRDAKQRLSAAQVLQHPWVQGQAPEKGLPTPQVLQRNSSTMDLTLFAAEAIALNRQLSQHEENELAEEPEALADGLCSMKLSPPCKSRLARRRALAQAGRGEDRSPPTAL
BRSK1 (human), sequence (Q8TDC3 whole entry, looked up): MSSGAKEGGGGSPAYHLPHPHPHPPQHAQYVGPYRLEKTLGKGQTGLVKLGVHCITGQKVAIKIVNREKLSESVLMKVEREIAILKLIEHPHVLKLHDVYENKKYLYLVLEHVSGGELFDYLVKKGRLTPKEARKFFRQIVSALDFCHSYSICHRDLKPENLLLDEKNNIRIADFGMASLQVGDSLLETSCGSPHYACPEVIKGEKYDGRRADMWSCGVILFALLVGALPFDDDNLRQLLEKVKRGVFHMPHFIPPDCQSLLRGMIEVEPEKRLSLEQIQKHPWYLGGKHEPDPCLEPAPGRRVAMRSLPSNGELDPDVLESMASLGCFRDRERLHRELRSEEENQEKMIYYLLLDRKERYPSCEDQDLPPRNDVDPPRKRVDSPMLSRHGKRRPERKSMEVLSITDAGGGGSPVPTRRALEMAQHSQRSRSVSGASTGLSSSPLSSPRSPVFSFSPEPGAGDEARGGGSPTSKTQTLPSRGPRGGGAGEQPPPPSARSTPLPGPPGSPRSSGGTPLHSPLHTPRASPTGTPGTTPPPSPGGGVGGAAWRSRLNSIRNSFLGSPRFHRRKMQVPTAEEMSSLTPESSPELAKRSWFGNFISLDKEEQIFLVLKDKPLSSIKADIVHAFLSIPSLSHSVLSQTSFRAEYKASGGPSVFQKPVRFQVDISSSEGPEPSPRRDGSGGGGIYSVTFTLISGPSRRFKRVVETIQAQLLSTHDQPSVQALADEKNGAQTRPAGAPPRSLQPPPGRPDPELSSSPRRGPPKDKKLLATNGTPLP
MAPK12 (human), sequence (P53778 whole entry, looked up): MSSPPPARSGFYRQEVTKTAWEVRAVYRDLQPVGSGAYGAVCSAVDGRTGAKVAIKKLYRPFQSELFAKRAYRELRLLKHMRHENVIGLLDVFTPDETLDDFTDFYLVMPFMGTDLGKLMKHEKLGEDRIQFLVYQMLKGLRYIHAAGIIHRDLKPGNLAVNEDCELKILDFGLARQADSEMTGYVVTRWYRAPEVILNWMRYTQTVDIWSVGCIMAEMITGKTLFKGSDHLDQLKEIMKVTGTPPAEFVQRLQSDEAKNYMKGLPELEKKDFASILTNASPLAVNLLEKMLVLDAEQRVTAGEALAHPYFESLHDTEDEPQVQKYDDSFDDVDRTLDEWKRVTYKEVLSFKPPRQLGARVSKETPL
MAP3K5 (human), sequence (Q99683 whole entry, looked up): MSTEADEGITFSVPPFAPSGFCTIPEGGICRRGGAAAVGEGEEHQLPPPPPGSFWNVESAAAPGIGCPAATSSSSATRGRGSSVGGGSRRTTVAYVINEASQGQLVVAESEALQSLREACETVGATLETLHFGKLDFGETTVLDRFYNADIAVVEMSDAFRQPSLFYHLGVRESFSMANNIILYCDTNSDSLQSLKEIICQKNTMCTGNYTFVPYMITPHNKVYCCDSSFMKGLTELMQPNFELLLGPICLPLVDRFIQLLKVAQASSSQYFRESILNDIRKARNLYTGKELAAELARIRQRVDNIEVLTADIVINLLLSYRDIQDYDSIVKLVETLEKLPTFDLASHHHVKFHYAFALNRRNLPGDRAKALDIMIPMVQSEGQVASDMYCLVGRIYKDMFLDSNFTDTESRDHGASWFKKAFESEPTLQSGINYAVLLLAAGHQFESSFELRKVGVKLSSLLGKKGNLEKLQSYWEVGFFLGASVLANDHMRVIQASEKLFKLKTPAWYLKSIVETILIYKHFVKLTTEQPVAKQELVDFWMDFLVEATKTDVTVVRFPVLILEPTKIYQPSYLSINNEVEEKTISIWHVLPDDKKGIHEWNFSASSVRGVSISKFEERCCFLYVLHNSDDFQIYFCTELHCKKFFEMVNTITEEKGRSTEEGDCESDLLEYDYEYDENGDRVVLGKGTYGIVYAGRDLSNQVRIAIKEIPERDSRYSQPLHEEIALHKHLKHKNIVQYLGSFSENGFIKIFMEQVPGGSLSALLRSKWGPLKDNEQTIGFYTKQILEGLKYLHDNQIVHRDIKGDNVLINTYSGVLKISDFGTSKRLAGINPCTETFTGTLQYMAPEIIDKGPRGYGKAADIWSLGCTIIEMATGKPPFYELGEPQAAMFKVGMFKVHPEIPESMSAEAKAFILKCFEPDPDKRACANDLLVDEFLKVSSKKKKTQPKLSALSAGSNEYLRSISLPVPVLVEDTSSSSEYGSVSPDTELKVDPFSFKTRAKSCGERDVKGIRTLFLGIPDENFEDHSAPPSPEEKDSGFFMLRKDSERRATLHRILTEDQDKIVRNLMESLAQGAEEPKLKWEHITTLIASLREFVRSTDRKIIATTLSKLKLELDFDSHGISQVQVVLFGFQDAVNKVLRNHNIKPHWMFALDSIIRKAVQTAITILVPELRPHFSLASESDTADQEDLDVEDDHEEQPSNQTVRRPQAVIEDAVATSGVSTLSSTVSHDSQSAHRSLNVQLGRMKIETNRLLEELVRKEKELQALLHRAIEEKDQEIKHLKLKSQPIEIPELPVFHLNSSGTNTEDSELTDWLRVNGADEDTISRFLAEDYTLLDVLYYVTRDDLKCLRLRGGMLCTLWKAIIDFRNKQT

- residual activity (MAPK13 (human); compound 0.1 µM): 99%
- residual activity (MAPK13 (human); compound 1.0 µM): 114%
- residual activity (DYRK1A (human); compound 0.1 µM): 117%
- residual activity (DYRK1A (human); compound 1.0 µM): 97%
- residual activity (CAMKK2 (human); compound 0.1 µM): 87%
- residual activity (CAMKK2 (human); compound 1.0 µM): 57%
- residual activity (SYK (human); compound 0.1 µM): 88%
- residual activity (SYK (human); compound 1.0 µM): 77%
- residual activity ([1]; compound 0.1 µM): 106%
- residual activity ([1]; compound 1.0 µM): 95%
- residual activity (PHKG1 (human); compound 0.1 µM): 100%
- residual activity (PHKG1 (human); compound 1.0 µM): 89%
- residual activity (PAK7 (human); compound 0.1 µM): 96%
- residual activity (PAK7 (human); compound 1.0 µM): 103%
- residual activity (MAPK3 (human); compound 0.1 µM): 106%
- residual activity (MAPK3 (human); compound 1.0 µM): 64%
- residual activity (MAP3K5 (human); compound 0.1 µM): 91%
- residual activity (MAP3K5 (human); compound 1.0 µM): 95%
- residual activity (MKNK1 (human); compound 0.1 µM): 55%
- residual activity (MKNK1 (human); compound 1.0 µM): 13%
- residual activity (PIM2 (human); compound 0.1 µM): 91%
- residual activity (PIM2 (human); compound 1.0 µM): 106%
- residual activity (MAP2K6 (human); compound 0.1 µM): 12%
- residual activity (MAP2K6 (human); compound 1.0 µM): 10%
- residual activity (MAPKAPK2 (human); compound 0.1 µM): 124%
- residual activity (MAPKAPK2 (human); compound 1.0 µM): 79%
- residual activity (FGFR1 (human); compound 1.0 µM): 87%
- residual activity (GSK3B (human); compound 0.1 µM): 102%
- residual activity (GSK3B (human); compound 1.0 µM): 74%
- residual activity (PRKAA1 or PRKAA2 (rat); compound 0.1 µM): 100%
- residual activity (PRKAA1 or PRKAA2 (rat); compound 1.0 µM): 92%
- residual activity (BRSK1 (human); compound 0.1 µM): 113%
- residual activity (BRSK1 (human); compound 1.0 µM): 90%
- residual activity (MAPK12 (human); compound 0.1 µM): 99%
- residual activity (MAPK12 (human); compound 1.0 µM): 92%
- residual activity (MARK1 (human); compound 0.1 µM): 112%
- residual activity (MARK1 (human); compound 1.0 µM): 99%
- residual activity (EPHB4 (human); compound 0.1 µM): 87%
- residual activity (EPHB4 (human); compound 1.0 µM): 90%
- residual activity (MAPK9 (human); compound 0.1 µM): 109%
- residual activity (MAPK9 (human); compound 1.0 µM): 81%
- residual activity (PRKACA (human); compound 0.1 µM): 99%
- residual activity (PRKACA (human); compound 1.0 µM): 93%
- residual activity (PRKCZ (human); compound 0.1 µM): 105%
- residual activity (PRKCZ (human); compound 1.0 µM): 99%
- residual activity (HIPK3 (human); compound 0.1 µM): 90%
- residual activity (HIPK3 (human); compound 1.0 µM): 103%
- residual activity (ERBB4 (human); compound 0.1 µM): 100%
- residual activity (ERBB4 (human); compound 1.0 µM): 95%
- residual activity (PIM1 (human); compound 0.1 µM): 102%
- residual activity (PIM1 (human); compound 1.0 µM): 72%
- residual activity (IGF1R (human); compound 0.1 µM): 100%
- residual activity (IGF1R (human); compound 1.0 µM): 93%
- residual activity (DAPK1 (human); compound 0.1 µM): 108%
- residual activity (DAPK1 (human); compound 1.0 µM): 94%
- residual activity (MELK (human); compound 0.1 µM): 95%
- residual activity (MELK (human); compound 1.0 µM): 94%
- residual activity (MAPKAPK5 (human); compound 0.1 µM): 66%
- residual activity (MAPKAPK5 (human); compound 1.0 µM): 14%
- residual activity (EEF2K (human); compound 1.0 µM): 85%
- residual activity (MAP2K2 (human); compound 0.1 µM): 12%
- residual activity (MAP2K2 (human); compound 1.0 µM): 3%
- residual activity (STK3 (human); compound 0.1 µM): 120%
- residual activity (STK3 (human); compound 1.0 µM): 89%
- residual activity (BRSK2 (human); compound 0.1 µM): 84%
- residual activity (BRSK2 (human); compound 1.0 µM): 88%
- residual activity (PIM3 (human); compound 0.1 µM): 126%
- residual activity (PIM3 (human); compound 1.0 µM): 80%
- residual activity (IKBKE (human); compound 0.1 µM): 120%
- residual activity (IKBKE (human); compound 1.0 µM): 92%
Structure (SMILES): COc1cc(O)c2c(c1)/C=C/C[C@H](O)[C@H](O)C(=O)/C=C\C[C@H](C)OC2=O

- residual activity (MAPK13 (human); compound 0.1 µM): 106%
- residual activity (MAPK13 (human); compound 1.0 µM): 100%
- residual activity (DYRK1A (human); compound 0.1 µM): 97%
- residual activity (DYRK1A (human); compound 1.0 µM): 85%
- residual activity (CAMKK2 (human); compound 0.1 µM): 87%
- residual activity (CAMKK2 (human); compound 1.0 µM): 35%
- residual activity (SYK (human); compound 0.1 µM): 89%
- residual activity (SYK (human); compound 1.0 µM): 72%
- residual activity ([1]; compound 1.0 µM): 105%
- residual activity (PHKG1 (human); compound 0.1 µM): 94%
- residual activity (PHKG1 (human); compound 1.0 µM): 83%
- residual activity (PAK7 (human); compound 0.1 µM): 89%
- residual activity (PAK7 (human); compound 1.0 µM): 91%
- residual activity (MAPK3 (human); compound 0.1 µM): 110%
- residual activity (MAPK3 (human); compound 1.0 µM): 109%
- residual activity (MAP3K5 (human); compound 0.1 µM): 96%
- residual activity (MAP3K5 (human); compound 1.0 µM): 100%
- residual activity (MKNK1 (human); compound 0.1 µM): 84%
- residual activity (PIM2 (human); compound 0.1 µM): 96%
- residual activity (PIM2 (human); compound 1.0 µM): 102%
- residual activity (MAP2K6 (human); compound 0.1 µM): 97%
- residual activity (MAP2K6 (human); compound 1.0 µM): 91%
- residual activity (MAPKAPK2 (human); compound 0.1 µM): 91%
- residual activity (MAPKAPK2 (human); compound 1.0 µM): 106%
- residual activity (FGFR1 (human); compound 0.1 µM): 94%
- residual activity (FGFR1 (human); compound 1.0 µM): 95%
- residual activity (GSK3B (human); compound 0.1 µM): 88%
- residual activity (GSK3B (human); compound 1.0 µM): 56%
- residual activity (PRKAA1 or PRKAA2 (rat); compound 0.1 µM): 92%
- residual activity (PRKAA1 or PRKAA2 (rat); compound 1.0 µM): 87%
- residual activity (BRSK1 (human); compound 0.1 µM): 94%
- residual activity (BRSK1 (human); compound 1.0 µM): 86%
- residual activity (MAPK12 (human); compound 0.1 µM): 90%
- residual activity (MAPK12 (human); compound 1.0 µM): 103%
- residual activity (MARK1 (human); compound 0.1 µM): 91%
- residual activity (MARK1 (human); compound 1.0 µM): 80%
- residual activity (EPHB4 (human); compound 0.1 µM): 105%
- residual activity (EPHB4 (human); compound 1.0 µM): 109%
- residual activity (MAPK9 (human); compound 0.1 µM): 81%
- residual activity (MAPK9 (human); compound 1.0 µM): 19%
- residual activity (PRKACA (human); compound 0.1 µM): 97%
- residual activity (PRKACA (human); compound 1.0 µM): 108%
- residual activity (PRKCZ (human); compound 0.1 µM): 112%
- residual activity (PRKCZ (human); compound 1.0 µM): 103%
- residual activity (HIPK3 (human); compound 0.1 µM): 113%
- residual activity (ERBB4 (human); compound 1.0 µM): 106%
- residual activity (PIM1 (human); compound 0.1 µM): 97%
- residual activity (PIM1 (human); compound 1.0 µM): 114%
- residual activity (IGF1R (human); compound 1.0 µM): 102%
- residual activity (DAPK1 (human); compound 0.1 µM): 90%
- residual activity (DAPK1 (human); compound 1.0 µM): 83%
- residual activity (MELK (human); compound 0.1 µM): 71%
- residual activity (MELK (human); compound 1.0 µM): 48%
- residual activity (MAPKAPK5 (human); compound 0.1 µM): 96%
- residual activity (MAPKAPK5 (human); compound 1.0 µM): 85%
- residual activity (EEF2K (human); compound 0.1 µM): 97%
- residual activity (EEF2K (human); compound 1.0 µM): 101%
- residual activity (MAP2K2 (human); compound 0.1 µM): 87%
- residual activity (MAP2K2 (human); compound 1.0 µM): 102%
- residual activity (STK3 (human); compound 0.1 µM): 83%
- residual activity (STK3 (human); compound 1.0 µM): 64%
- residual activity (BRSK2 (human); compound 0.1 µM): 82%
- residual activity (BRSK2 (human); compound 1.0 µM): 76%
- residual activity (PIM3 (human); compound 0.1 µM): 97%
- residual activity (PIM3 (human); compound 1.0 µM): 84%
- residual activity (IKBKE (human); compound 0.1 µM): 97%
- residual activity (IKBKE (human); compound 1.0 µM): 98%
Structure (SMILES): CN(C)C/C=C/C(=O)Nc1cccc(C(=O)Nc2ccc(Nc3nccc(-c4cccnc4)n3)cc2)c1
